Assay results: patent US10543231B2, “Methods and materials for treating cancer” (Mayo Foundation for Medical Education and Research, priority 2017, dated 2020)

Tests used:
[1] = system: luciferase-transfected PANC-1 cells; assay: In vivo tumor growth inhibition, orthotopic PANC-1 xenograft; set-up: species or system NOD-SCID-Gamma (NSG) mice; details: after three weeks of treatment
Experimental: (§1) 6-8 weeks old male and female NOD-SCID-Gamma (NSG) mice were obtained from NCI and housed in the institutional animal facilities. About 1×10^6 luciferase-transfected PANC-1 cells suspended in 50 μL PBS were injected orthotopically into the pancreas of the mice. Tumors were allowed to grow for three weeks. Then, mice were randomized into four groups of ten (5 male mice and 5 female mice in each group), and 50 μg/mouse Gem, GNP-Gem with an equivalent Gem amount, or unconjugated GNPs were injected intraperitoneally three times a week for three weeks. Tumor growth was measured weekly using an IVIS bio-imager after injecting Luciferin. After three weeks of treatment, mice were sacrificed, and tumors were harvested, measured with slide calipers, and weighed. Tumor volumes were calculated using the formula: V=0.5 X a X b^2, where ‘a’ is the longest tumor axis, and ‘b’ is the shortest tumor axis.
About, 1×10^6 luciferase transfected PANC-1 cells were orthotopically implanted in the pancreas of 6-8 weeks old NSG mice. After three weeks, mice were imaged noninvasively using the Xenogen instrument to confirm tumor growth and then randomized into four groups before the initiation of treatment. Both male and female mice were included in the experiment to delineate any differential sex-dependent therapeutic effect of GNP-Gem. The experiment was terminated after three weeks of treatment. […] FIG. 5C depicts the tumor growth curve as measured by luciferase bioluminescence for female and male mice separately or in combination.

AsPC-1 cells = assay: In vitro cell viability assay (MTS); format: cell-based; details: AsPC-1, 1 hour treatment, MTS after 72 hours
Experimental: About 5×10^3 cells were seeded in 96-well plates and treated with increasing doses of GNP, Gem, and GNP-Gem diluted in respective media. After a 1-hour incubation, cells were washed thrice with PBS, overlaid with 100 μL media containing serum and antibiotics, and incubated for another 72 hours. At the end of the incubation, cell viability was measured using Celltiter 96 Aqueous One Solution Cell Proliferation Assay (Promega) as per the manufacturer's protocol. Briefly, the media containing the treatments were aspirated from the plate and washed with PBS. Then, 100 μL media containing 20 μL One Solution reagent was added to each well. The plate was incubated at 37° C. for 30 minutes, and absorbance at 492 nm was measured using Spectramax i3x. Percentage viability was calculated as follows: Viability (%)=100* (ATreated−ABlank)/(AUntreated−ABlank).
To this end, two commercially available pancreatic cancer cell lines were selected (AsPC-1 and PANC-1, obtained from ATCC). The cells were treated with increasing doses of GNP, Gem, and GNP-Gem for 1 hour. After 1 hour, cells were washed three times with PBS to remove the treatments completely in order to reduce any non-specific effect, and fresh media was added to the cells. The cell viability measurement was performed by MTS assay after 72 hours (FIG. 4A-B).

[2] = system: luciferase-transfected PANC-1 cells; assay: Histological study of harvested tumors (H&E, Ki67); format: in vivo, NOD-SCID-Gamma (NSG) mice
Experimental: as §1
Tumors were harvested and fixed in neutral buffered 10% formalin at room temperature for 24 hours prior to embedding in paraffin and sectioning. Sections were deparaffinized and then subjected Hematoxylin and Eosin (H&E) and Ki67 staining according to manufacturer's instructions (DAB 150, Millipore). Stable diaminobenzidine was used as a chromogen substrate, and the sections were counterstained with a hematoxylin solution. Slides were digitized with Aperio AT2 slide scanner (Leica) and analyzed with imagescope software (Leica).

Nc1ccn([C@@H]2O[C@H](CO)[C@@H](O)C2(F)F)c(=O)n1 [Gem, Gemcitabine]
tumor volume, mean ([1]; female and male combined): 251 mm^3
tumor volume, median ([1]; female and male combined): 250 mm^3
tumor weight, mean ([1]; female and male combined): 310.86 mg
tumor weight, median ([1]; female and male combined): 280.35 mg
tumor volume, mean ([1]; female mice): 254.8 mm^3
tumor volume, median ([1]; female mice): 254.6 mm^3
tumor weight, mean ([1]; female mice): 295.9 mg
tumor weight, median ([1]; female mice): 272.4 mg
tumor volume, mean ([1]; male mice): 247.17 mm^3
tumor volume, median ([1]; male mice): 245.3 mm^3
tumor weight, mean ([1]; male mice): 325.8 mg
tumor weight, median ([1]; male mice): 288.3 mg
effect on cell viability (AsPC-1 cells): dose dependent effect
percentage of Ki67-positive nuclei, mean ([2]; female and male combined): 31.4%
percentage of Ki67-positive nuclei, median ([2]; female and male combined): 32.07%
percentage of Ki67-positive nuclei, mean ([2]; female mice): 31.3%
percentage of Ki67-positive nuclei, median ([2]; female mice): 32.3%
percentage of Ki67-positive nuclei, mean ([2]; male mice): 31.5%
percentage of Ki67-positive nuclei, median ([2]; male mice): 31.4%
